Test results published in US20130031644A1, “AUTONOMOUS LUX REPORTER SYSTEM AND METHODS OF USE” (University of Tennessee Research Foundation, priority 2011, published 2013).

Columns and labels:
[1] = target: T1, bacterial luciferase (lux) in protein extracts of HEK293 cells (Photorhabdus luminescens, UniProt P19839); test: In vitro supplementation assays of lux cell extracts (oxidoreductase, aldehyde); type: biochemical, P. luminescens; settings: 0.002% (w/v) n-decanal
T1 construct: expressed in transfected cells; host or cells: HEK293 cells stably carrying pLuxAB (luxA-IRES-luxB, CMV promoter), co-transfected with pLuxCDEfrp:WT or pLuxCDEfrp:CO; The soluble protein extract was made by freeze/thaw
T1 sequence (P19839 1-360): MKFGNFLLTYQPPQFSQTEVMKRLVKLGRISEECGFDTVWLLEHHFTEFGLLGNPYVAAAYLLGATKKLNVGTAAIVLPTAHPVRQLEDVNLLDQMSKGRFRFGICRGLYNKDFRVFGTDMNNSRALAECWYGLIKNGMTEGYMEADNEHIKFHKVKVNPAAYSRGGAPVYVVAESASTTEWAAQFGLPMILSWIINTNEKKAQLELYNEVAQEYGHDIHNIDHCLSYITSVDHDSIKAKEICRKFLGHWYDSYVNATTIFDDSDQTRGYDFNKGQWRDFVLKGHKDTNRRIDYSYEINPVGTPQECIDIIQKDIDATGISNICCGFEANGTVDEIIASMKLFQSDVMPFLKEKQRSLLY
T1 sequence (P19840 1-327 partner): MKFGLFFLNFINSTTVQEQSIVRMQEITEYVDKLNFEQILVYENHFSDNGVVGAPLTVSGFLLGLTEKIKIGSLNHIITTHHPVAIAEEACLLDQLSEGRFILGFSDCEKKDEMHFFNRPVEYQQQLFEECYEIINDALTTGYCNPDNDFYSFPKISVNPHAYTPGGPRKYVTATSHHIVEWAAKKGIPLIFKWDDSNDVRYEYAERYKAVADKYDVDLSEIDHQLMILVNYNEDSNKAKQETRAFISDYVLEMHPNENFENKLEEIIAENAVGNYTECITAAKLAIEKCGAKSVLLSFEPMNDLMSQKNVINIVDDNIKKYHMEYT
Procedure: Bioluminescence was measured using an FB 14 luminometer (Zylux) with a 1 sec integration time. To prepare the sample for in vitro bioluminescent measurement, 400 μl of the isolated protein extract was combined with 500 μl of either oxidoreductase supplemented light assay solution containing 0.1 mM NAD(P)H, 4 μM FMN, 0.2% (w/v) BSA and 1 U of oxidoreductase protein isolated from V. fischeri (Roche), or oxidoreductase deficient light assay solution (distilled water substituted for the 1 U of oxidoreductase protein). Following the initial bioluminescent reading, samples were amended with 0.002% (w/v) n-decanal and the readings were continued to determine if additional aldehyde could increase light output. All bioluminescent signals were normalized to total protein concentration as determined by BCA protein assay (Pierce) and reported as relative light units (RLU)/mg total protein. […] A 15 μl aliquot of cells was removed and counted using a hemocytometer to allow all values to be normalized to viable cell counts. […]
Total protein was extracted from co-transfected pLuxCDEfrp:CO/pLuxAB or pLuxCDEfrp:WT/pLuxAB cell lines or the pTa2AluxAB transfected cell line using a freeze/thaw procedure. […] Bioluminescence was measured using an FB14 luminometer (Zylux) with a 1 sec integration time. […]

[2] = tested on: constitutively bioluminescent HEK293 cells expressing pLuxCDEfrp/pLuxAB; test: Bioluminescent measurement in response to toxic chemical exposure (n-decanal); type: cell-based, human
Procedure: To determine the ability of constitutively bioluminescent HEK293 cells to function as a bioreporter for toxic chemical exposure, cells stably expressing pLuxCDEfrp/pLuxAB were exposed to increasing concentrations of the cytotoxic aldehyde n-decanal. HEK293 cells previously determined to be capable of continuous bioluminescent output from the expression of the pLuxCDEfrp/pLuxAB plasmids were passaged into 75 cm^2 tissue culture flasks (Corning) and grown at 37° C. and 5% CO^2 until they reached 90% confluence. Cells were then harvested by trypsinization and cell number was determined as the average of two counts using a hemocytometer. Approximately 1×10^6 cells per well were plated in all wells in opaque 24-well tissue culture plates (Costar) in DMEM without phenol red and supplemented with 10% fetal bovine serum, 0.01 mM non-essential amino acids, and 0.01 mM sodium pyruvate. Triplicate wells were treated with serial dilutions of n-decanal ranging from 0.1% to 1×10^−5%, with a control set receiving no n-decanal amendment to determine maximal bioluminescent expression. Photon counts were then recorded using an IVIS Lumina in vivo imaging system and analyzed with Living Image 3.0 software (Caliper Life Sciences). The change in light output over time was determined in photons (p)/sec/cm^2/steridian (sr) for each well using integration times of […] once every hour for 24 h and reported as the average of three runs with the standard error of the mean.

[3] = tested on: tetracycline responsive lux reporter HEK293 cells (pLuxAB/pLuxCDEfrp-TET); test: Bioluminescent measurement in response to doxycycline; type: cell-based, human; settings: for average total flux: 24 h period; for range of total flux over the course of the assay: after 1 h post treatment
Procedure: Cell lines displaying the greatest upregulation of luxC gene transcription following treatment with 10 ng and 100 ng Doxycycline/ml were passaged into 75 cm^2 tissue culture flasks (Corning) and grown at 37° C. and 5% CO2 until they reached 90% confluence. Cells were then harvested by trypsinization and cell number was determined as the average of two counts using a hemocytometer. Approximately 1×10^6 cells per well were plated in triplicate in opaque 24-well tissue culture plates (Costar) in DMEM without phenol red and supplemented with 10% fetal bovine serum, 0.01 mM non-essential amino acids, and 0.01 mM sodium pyruvate. Immediately post plating, wells were spiked with either 0, 10, 100, or 500 ng Doxycycline/ml. Photon counts were then recorded using an IVIS Lumina in vivo imaging system and analyzed with Living Image 3.0 software (Caliper Life Sciences). The change in light output over time was determined in photons (p)/sec (s) for each well by averaging the photon output over integration times of 10 min and reported with the standard error of the mean.

[4] = tested on: luxC gene transcription under the tetracycline response element in HEK293 cells (pLuxAB/pLuxCDEfrp-TET); test: rt-PCR of luxC transcription in response to doxycycline; type: cell-based, human; settings: for average CT value for luxC detection: 24 h, average of eleven cell lines; for increase in luxC transcription / reduction of cycles to reach CT: best performing cell line
Procedure: Twenty-four h post-transfection, the medium was removed and replaced with complete medium supplemented with the appropriate antibiotic. Selection of successfully transfected clones was performed by refreshing selective medium every 4-5 d until all untransfected cells had died. At this time, colonies of transfected cells were removed by scraping, transferred to individual 25 cm^2 cell culture flasks, and grown in complete medium supplemented with the appropriate antibiotics. To screen the resulting cell lines for the ability to regulate luxC transcription in response to doxycycline, relative reverse transcription PCR (rt-PCR) was used to determine the level of luxC mRNA present 24 h following the addition of 0, 10, or 100 ng doxycycline/ml to the complete growth medium. To this end, each isolated cell line was split into 4 25 cm^2 cell culture flasks upon reaching 80% confluence. Cells were then grown at 37° C. and 5% CO2 until again reaching ˜80% confluence. At this point, one of the flasks was routinely passaged to maintain a stock of cells for future use. The remaining 3 flasks were spiked with 0, 10, or 100 ng doxycycline/ml and returned to the incubator. Twenty-four h post doxycycline addition, cells were harvested and total RNA was isolated using an RNeasy isolation kit (Qiagen). Isolated RNA was used directly for rt-PCR analysis, and cell lines displaying the greatest range in luxC transcription between 0 ng Doxycycline/ml treatment and either 10 ng or 100 ng doxycycline/ml treatment were selected for bioluminescent screening.

[5] = native state, 37° C.; cited from earlier work

For CCCCCCCCCC=O [n-decanal], the “increase in light output” value ([1]; extracts of cells with codon-optimized genes) was 58 fold, the “increase in light output” value ([1]; extracts of cells with wild-type genes) was 16 fold and the “molar concentration corresponding to the 0.01% treatment” value ([2]; 0.01% decanal) was about 640 µM. For the same molecule, the “start of intermittent deviation in bioluminescent flux” value ([2]; 0.01% decanal, post addition) was 40 min, the “time after addition until deleterious effects consistently observable” value ([2]; 0.01% n-decanal) was 4 h and the “effect on bioluminescent output” value ([2]; 0.1% n-decanal) was “reduced bioluminescent output immediately following addition”. The “concentration at which the aldehyde became toxic to the HEK293 cell line” value ([2]; 24 h assay) was at least 0.01% and the “effect on bioluminescent output” value ([2]; remaining treatment levels (below 0.01%, down to 1×10^−5%)) was “could not be statistically differentiated from cells not receiving treatment”.
With C[C@H]1c2cccc(O)c2C(=O)C2=C(O)[C@]3(O)C(=O)C(C(N)=O)=C(O)[C@@H](N(C)C)[C@@H]3[C@@H](O)[C@@H]21 [doxycycline] the average total flux ([3]; 10 ng doxycycline/ml, not significant vs untreated (p=0.06)) was 11,500 (±200) p/s, the “range of total flux over the course of the assay” value ([3]; 10 ng doxycycline/ml) was 1,900 p/s and the “incubation period to significant up regulation in bioluminescent output” value ([3]; 100 ng doxycycline/ml) was 1 h. For the same molecule, the average total flux ([3]; 100 ng doxycycline/ml, significant vs untreated (p=1.1×10^−5)) was 12,500 (±200) p/s, the “range of total flux over the course of the assay” value ([3]; 100 ng doxycycline/ml) was 1,800 p/s and the maximum measured flux ([3]; induced with 100 ng doxycycline/ml) was 1.3 (±0.03)×10^4 p/s. For the same molecule, the “average CT value for luxC detection” value ([4]; 10 ng doxycycline/ml) was 11.9 (±0.7) cycles, the “average CT value for luxC detection” value ([4]; 100 ng doxycycline/ml) was 11.5 (±0.6) cycles and the “increase in luxC transcription” value ([4]; 10 ng doxycycline/ml) was “approximately 11 fold”. The “reduction of cycles to reach CT” value ([4]; 10 ng doxycycline/ml) was 3.5 cycles, the “increase in luxC transcription” value ([4]; 100 ng doxycycline/ml) was about 20 fold and the “reduction of cycles to reach CT” value ([4]; 100 ng doxycycline/ml) was 4.3 cycles.
For “firefly luciferase protein: firefly luciferase reporter protein, heat labile under whole animal imaging conditions”, the half life [5] is given as at least 3 min.
